# Experimental data reported in PubChem BioAssay AID1996.
# Conditions: buffer; pH 7.4; 200.0 µM
row,SMILES,solubility kinetic [µg/mL]
1,CCOc1cccc(CNCc2ccncc2)c1,27.4
2,Cc1[nH]c(=S)c(C#N)c(C)c1CCC#N,> 32.6
3,Cc1cccc(CSc2nc3c(c(=O)n2C)SCC3)c1,11.6
4,COc1cc(NC(=O)C2CC2)c(OC)cc1NC(=O)c1ccco1,3.6
5,C=CCN1C(=O)C(CC(=O)O)SC1=Nc1ccc(C(=O)O)cc1 (configuration not stated),49.2
6,CCn1c(CNC(=O)C2CCCCC2)cc2cc(C)ccc21,< 0.3
7,COc1ccc(OCCn2cnc(Cl)c2Cl)cc1,41.1
8,Cc1ccc2nc(-c3ccccc3)cc(C(=O)N3CC(C)OC(C)C3)c2c1 (configuration not stated),49.1
9,CC(=O)c1ccc(NC(=O)C(C)Sc2ccccn2)cc1 (configuration not stated),> 45.1
10,COC(=O)c1sc(-c2cccs2)cc1NC(=O)/C=C/C(=O)O,> 50.6
11,Cc1csc(NC(=O)Cc2ccc(Br)cc2)n1,36.5
12,COc1ccccc1N1C(=O)C2C3C=CC(CC3)C2C1=O (configuration not stated),30.7
13,COc1ccc(CCNc2nc(C)cc(C)n2)cc1OC.Cl,> 48.6
14,O=C(CSc1nnc2ccccn12)NC(=O)c1ccccc1Cl,> 52
15,Cc1csc(NC(=O)CCCC(=O)c2ccccc2)n1,> 43.3
16,CCc1ccc(NC(=O)CSc2ccccn2)cc1,33.7
17,COc1ccc(C(=O)CN2CCN(c3ccc(F)cc3)CC2)cc1,13
18,CCS(=O)(=O)N1CCC(C(=O)NCc2ccc(OC)cc2)CC1,> 51.1
19,O=C(COC(=O)CNC(=O)C1CCCCC1)NCc1ccccc1,> 49.9
20,Cc1cc(=O)oc2c(CN3CCN(CCO)CC3)c(O)ccc12,> 47.8
21,Cc1c(OCC(N)=O)ccc2c(-c3ccccc3)cc(=O)oc12,0.9
22,C=CCN1C(=O)C(C)(C)N(C(=O)c2cccc([N+](=O)[O-])c2)c2ccccc21,23.5

row,SMILES,solubility kinetic [µg/mL]
1,CS(=O)(=O)N(CC(=O)Nc1ccccc1F)C1CCCCC1,47.3
2,Fc1cccc(NC(=S)Nc2cccc3ccccc23)c1,19.6
3,COc1ccc(CCC(C)N(C)Cc2ccccc2)cc1 (configuration not stated),34.9
4,CC(C)(C)NC(=O)CSc1nc(-c2ccc(F)cc2)cs1,6.6
5,CC(=O)NC(=O)COC(=O)c1ccc2ncsc2c1,27.5
6,O=C(NCc1ccco1)/C(=C\c1ccccc1)NC(=O)c1ccccc1,17.2
7,COC(=O)c1sccc1NC(=O)Nc1ccc(F)cc1,28.4
8,COc1ccc(NS(=O)(=O)c2cc(NC(=O)c3cc(F)c(F)cc3Cl)ccc2N2CCOCC2)cc1,3.7
9,COc1ccc(NC(=O)c2ccc(S(=O)(=O)N3CC(C)OC(C)C3)cc2)cc1 (configuration not stated),7.8
10,O=C(CN1C(=O)COc2ccccc21)NCCCN1CCCC1,> 47.6
11,O=C(O)CN1C(=O)C(=O)N(Cc2ccc(Cl)cc2Cl)C1=O,> 49.7
12,Cc1ccc(S(=O)(=O)/N=C/c2c(O)ccc3ccccc23)cc1,30.8
13,C=Cn1cc[n+](CC(=O)c2ccc(OC)c(OC)c2)c1.[Br-],> 53
14,O=C(Nc1ccc2c(c1)C(=O)OC2)c1ccc(C(F)(F)F)cc1,< 0.7
15,C/C(=N\O)C(C)(C)Nc1cccc(Br)c1,37
16,Cc1cccc(C)c1NC(=O)N1CCCCCCC1,38.8
17,Cc1ccnc(NC(=O)c2cccc(OC(F)F)c2)n1,39.9
18,O=C(CSc1ccc(-c2ccncc2)nn1)N1CCCC1,> 45.1
19,Cc1ccc(-c2noc(-c3ccno3)n2)cc1,2.4
20,CC(C)=C(NC(=O)c1ccccc1)C(N)=O,> 32.7
21,CC1=C(C(=O)OC(C)C)C(c2ccc(C)o2)C(C(=O)OC(C)C)=C(C)N1,11.8
22,Cc1cccc(NC(=O)c2cccnc2)c1C,24.1

row,SMILES,solubility kinetic [µg/mL]
1,COc1ccc(C(=O)OC2CC3CCC(C2)[N+]3(C)[O-])cc1OC (configuration not stated),47.8
2,CC1CCc2sc(C(=O)OCC(=O)NC(C)C)cc2C1 (configuration not stated),1.2
3,CCOc1ccccc1NC(=S)NCc1ccccc1,38.8
4,COc1ccc2oc(C(=O)Nc3ccccn3)c(C)c2c1,22
5,O=C(O)Cc1ccc(NS(=O)(=O)c2ccc3ccccc3c2)cc1,> 51.2
6,COc1ccc(NC(=S)NC2CCCCC2)cn1,> 39.8
7,COc1ccc2c(c1OC)C(=O)N(c1ccc(O)cc1)C2,6.3
8,Cc1ccccc1NC(=O)CN1CCOCC1.Cl,> 40.6
9,CCCCc1nnc(NC(=O)COC)s1,> 34.4
10,CC(C)n1c(N)c(C#N)c2ccc([N+](=O)[O-])cc2c1=O,1.6
11,Cc1cc(C(=O)N(C)Cc2c(F)cccc2Cl)c2ccccc2n1,42.4
12,O=C(NC(=S)NC1CCS(=O)(=O)C1)c1ccccc1 (configuration not stated),> 44.8
13,COC(=O)c1c(NC(=O)c2ccc(C)cc2)csc1C,< 0.6
14,O=C(Nc1ccc2c(c1)OCO2)c1ccc(CO)cc1,> 40.7
15,Cn1cccc1-c1nc2ccccc2n1C,> 31.7
16,CC1CCN(C(=O)COC(=O)c2ccc3ccccc3n2)CC1,> 46.9
17,C=CCNc1nc(N)c([N+](=O)[O-])c(Nc2ccccc2OC)n1,0.4
18,O=C(CCn1c(=O)oc2ccccc21)NCCCN1CCOCC1,43.2
19,CCOC(=O)c1cc(NC(=O)CCC(=O)O)ccc1N1CCCCC1,51.3
20,Cc1ccc(CNc2cnccn2)s1,30
21,Cc1ccc(C)c(NC(=O)CCN2CCN(C)CC2)c1,> 41.3
22,CCCCCCc1ccc(OC(=O)c2ccncc2)cc1,0.7

row,SMILES,solubility kinetic [µg/mL]
1,COc1cccc(NC(=O)COC(=O)c2sccc2C)c1,12.2
2,O=C(C(=O)N1CCCC1)c1c(-c2ccccc2)[nH]c2ccccc12,> 47.8
3,CC1SCC(NC(=O)c2cccc(Cl)c2)CS1 (configuration not stated),> 43.2
4,O=C(O)c1ccc(-c2nc3scc(-c4ccccc4)c3c(=O)[nH]2)cc1,> 52.3
5,COc1ccc(OC)c(NC(=O)CS(=O)(=O)Cc2ccccc2)c1,3.1
6,Cc1cc(NC(=O)c2ccc3nccnc3c2)ccc1Br,4.5
7,CCc1ccc(N2C(=O)CN(Cc3cccs3)C2=S)cc1,< 0.3
8,Cc1ccc(N=Cc2ccc(N(C)C)cc2)cc1C,20.3
9,CC(=O)NCC(=O)NNC1CC(=O)N(c2cccc(Cl)c2)C1=O (configuration not stated),> 50.8
10,COc1ccc(CN2C(=O)c3ccccc3C2OC)cc1 (configuration not stated),> 42.5
11,COCCn1c(SCC(=O)c2ccccc2)nc2c(c1=O)SCC2,42.5
12,CCOC(=O)N1CCN(S(=O)(=O)c2ccc(Cl)cc2)CC1,48.4
13,CCN1C(=O)CC(N2CCN(c3cccc(OC)c3)CC2)C1=O (configuration not stated),> 47.6
14,COc1ccccc1C(=O)CN1C(=O)NC2(CCCCCC2)C1=O,12.9
15,O=C(COC(=O)c1ccc2c(c1)OCO2)Nc1ccccc1F,6.3
16,CCOC(=O)c1c(O)c2cccc3c2n(c1=O)CC3,> 38.9
17,Nc1ccc(-c2nc3cc(N)ccc3n2CCO)cc1,> 40.2
18,Cc1cc(C(=O)NCc2ccco2)c2ccccc2n1,> 39.9
19,COc1cccc(Cn2c(=O)c3[nH]cnc3n(-c3ccccc3C)c2=O)c1,> 54.4
20,CC(=O)Nc1ccc2c(c1)C(=O)N(c1cccc3ccccc13)C2=O,8.2
21,COCCCN(CC(=O)O)S(=O)(=O)c1ccccc1,> 43.1
